We go through six compounds from patent publication US12497371B2, “DRP-1 inhibitors as therapeutic agents” (The Florida International University Board of Trustees, priority 2023, dated 2025).

Experiment [1] deals with eNAMPT-mediated mitochondrial fission. Put plainly: eNAMPT-mediated mitochondrial fission. In kind it is cell-based. Particulars: FIG. 5A. As to the method: (§1) FIGS. 5A-5C show the validation of novel Drp1 inhibitors as therapeutics against VILI. Three novel Drp1 inhibitors identified in the Drp1 GTPase assay were tested for their ability to attenuate eNAMPT-mediated mitochondrial fission (5A). One of the compounds CTS2444-32 was further tested in mice exposed to high tidal mechanical ventilation (40 mL/kg, PEEP=5 cm H2O, BR=75 bpm, 4 h). […] Values are mean±SEM, n=4. *P<0.05 vs. spontaneously breathing control, †P<0.05 vs. DMSO+VILI.
Three lead compounds (FIG. 4) were selected for further testing. These compounds are referred to as CTS (Center for Translational Science) 2444-19, CTS2444-20, and CTS2444-32. These compounds were examined for their ability to prevent eNAMPT-mediated mitochondrial fission.

In experiment [2] the test system is ventilator-induced lung injury (VILI). Put plainly: VILI model: mice exposed to high tidal mechanical ventilation. In kind it is in vivo. Particulars: 10 mg/kg, i.p., 2 h. As to the method:
as §1
CTS2444-32 (10 mg/kg, i.p., 2 h) attenuated the VILI-mediated increase in the levels of TNFα (6A), IL-6 (6B), IL-18 (6C), GROα, (6D), MIP-1α (6E), MIP-1β(6F), MCP-1 (6G), MCP-3 (6H), and IL-12p70 (6I) in the BALF. Values are mean±SEM, n=4. *P<0.05 vs. spontaneously beathing control, †P<0.05 vs. DMSO+VILI.
To validate Drp1 as a therapeutic target, four preclinical VILI/ARDS models are used: i) VILI; ii) a “two-hit” model of polymicrobial sepsis (cecal ligation and puncture, CLP) in addition to mechanical ventilation; iii) a “two-hit” COV19-pneumonia model consisting of the delivery of the COVID19 spike protein combined with mechanical ventilation and iv) the ARDS-like extended lung inflammation model in which the mice are exposed long-term to LPS. Therapeutic agents are given before the initiation of injury in the VILI-only model or at the beginning of mechanical ventilation in the “two-hit” models, or 4 d after LPS exposure in the extended lung inflammation model to mimic the situation of a critically ill patient in the ICU.

The subject of another experiment is mouse primary microglia. The experiment can be described thus: Paraquat-treated primary microglia, qPCR of inflammatory mRNA. The format is cell-based. Particulars: 6 h. As to the method: Microglia cells were treated with paraquat (PQ) in the presence or absence of compound 2444-32. The mRNA levels of IL-1β and RelA were analyzed. Microglia isolated from Drp1+/− pups was used as a positive control.
Neuroinflammation is commonly observed in Parkinson's disease (PD) and other neurodegenerative diseases. The role of activated microglia in causing neuroinflammation by upregulating the levels of pro-inflammatory cytokines such as IL-1β and relA is implicated in PD. The protective effects of one lead compound (2444-32) was evaluated using mouse primary microglia isolated from newborn pups. As shown in the FIG. 7, these cells were treated for with paraquat (PQ), a herbicide that has been linked to increasing the risk of developing PD, in the presence or absence of compound 2444-32. After 6 h, RNA was isolated for qPCR analysis. There was a dramatic increase in the levels of IL-1β and RelA mRNA. […] As a positive control model for a partial loss of Drp1 function, microglia isolated from Drp1+/− pups was used, which express approximately 50% of Drp1 as compared to their wild-type littermates. Significant reduction in neuroinflammation was also detected in these mutant microglia treated with PQ, indicating the protective effects of 2444-32 was most likely mediated through reduced Drp1 function, not off-target effects.
For orientation: In qPCR the cycle at which signal appears reflects the starting amount.

A further experiment relates to LUHMES cells. Put plainly: α-synuclein PFF aggregation in LUHMES cells (pS129 immunostaining). The format is cell-based, human. Particulars: PFF 24 h, then 20 μM compound for 48 h. As to the method:
To determine the therapeutic potential of compound 2444-32 against α-synuclein, human dopaminergic neuronal cells (LUHMES cells) were treated with human α-synuclein pre-formed fibrils (PFF). After 24 h incubation, cell culture media containing PFF was removed and replaced with fresh media containing 20 μM of compound 2444-32 or vehicle control. Cells were incubated for a further 48 h before having media removed and processed for immunostaining for pS129 α-synuclein, a pathogenic form of α-synuclein. α-synuclein protein aggregates were then quantified using the IMARIS (Oxford instruments) software.

In a further experiment the target is T1, dynamin 1 (Homo sapiens, UniProt Q05193).
T1 sequence (Q05193 1-864): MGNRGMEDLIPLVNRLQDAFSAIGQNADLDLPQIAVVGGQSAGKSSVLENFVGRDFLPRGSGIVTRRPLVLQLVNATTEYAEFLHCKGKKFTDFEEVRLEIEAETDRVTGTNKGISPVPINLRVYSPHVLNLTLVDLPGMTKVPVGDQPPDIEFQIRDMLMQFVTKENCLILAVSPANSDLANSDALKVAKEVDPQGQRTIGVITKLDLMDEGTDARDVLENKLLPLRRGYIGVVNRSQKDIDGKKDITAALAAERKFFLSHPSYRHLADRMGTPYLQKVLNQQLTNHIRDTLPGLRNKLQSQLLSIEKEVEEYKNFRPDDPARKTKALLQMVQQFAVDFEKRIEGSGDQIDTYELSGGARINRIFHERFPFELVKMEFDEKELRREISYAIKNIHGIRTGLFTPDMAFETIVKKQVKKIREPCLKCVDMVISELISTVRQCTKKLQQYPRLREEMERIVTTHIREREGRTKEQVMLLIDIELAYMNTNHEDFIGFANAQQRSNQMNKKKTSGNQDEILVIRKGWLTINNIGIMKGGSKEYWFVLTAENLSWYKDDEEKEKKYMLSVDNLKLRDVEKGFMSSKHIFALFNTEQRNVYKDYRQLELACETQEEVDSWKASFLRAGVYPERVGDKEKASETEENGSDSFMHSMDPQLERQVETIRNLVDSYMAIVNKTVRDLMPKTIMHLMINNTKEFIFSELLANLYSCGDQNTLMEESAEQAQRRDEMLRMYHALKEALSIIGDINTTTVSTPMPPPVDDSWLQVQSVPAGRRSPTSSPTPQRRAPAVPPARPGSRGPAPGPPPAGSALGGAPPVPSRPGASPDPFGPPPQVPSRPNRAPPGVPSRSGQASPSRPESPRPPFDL
Particulars: background statement; cited from earlier work.

The target of the next experiment is T2, dynamin 2 (Homo sapiens, UniProt P50570).
T2 sequence (P50570 1-870): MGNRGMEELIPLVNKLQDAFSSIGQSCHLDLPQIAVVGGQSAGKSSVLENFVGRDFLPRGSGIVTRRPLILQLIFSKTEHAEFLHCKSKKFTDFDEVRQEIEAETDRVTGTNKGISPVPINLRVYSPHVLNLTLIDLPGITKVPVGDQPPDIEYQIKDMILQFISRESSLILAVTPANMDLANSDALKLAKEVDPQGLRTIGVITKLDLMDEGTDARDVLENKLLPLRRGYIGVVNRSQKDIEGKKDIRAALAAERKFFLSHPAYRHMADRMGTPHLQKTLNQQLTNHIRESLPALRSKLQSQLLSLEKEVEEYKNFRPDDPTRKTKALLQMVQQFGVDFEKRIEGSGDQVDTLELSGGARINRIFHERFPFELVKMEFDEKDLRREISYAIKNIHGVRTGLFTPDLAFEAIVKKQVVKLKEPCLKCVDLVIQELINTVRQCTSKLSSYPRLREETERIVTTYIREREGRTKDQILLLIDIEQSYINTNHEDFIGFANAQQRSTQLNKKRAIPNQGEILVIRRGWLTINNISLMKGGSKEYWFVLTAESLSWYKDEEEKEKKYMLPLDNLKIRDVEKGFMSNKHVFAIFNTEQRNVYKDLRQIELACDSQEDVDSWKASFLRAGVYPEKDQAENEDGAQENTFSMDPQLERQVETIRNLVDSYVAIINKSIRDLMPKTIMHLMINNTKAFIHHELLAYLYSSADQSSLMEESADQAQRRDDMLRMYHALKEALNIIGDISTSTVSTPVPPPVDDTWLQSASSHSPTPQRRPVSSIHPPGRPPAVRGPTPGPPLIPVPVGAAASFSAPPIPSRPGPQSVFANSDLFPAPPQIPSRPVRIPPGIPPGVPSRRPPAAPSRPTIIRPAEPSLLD
Particulars: background statement; cited from earlier work.

The next experiment deals with cell proliferation. Particulars: background statement; cited from earlier work.
The next experiment concerns lung cancer tumor. Particulars: xenograft mouse model; background statement; cited from earlier work.
In experiment [3] the test system is cardiac ischemia-reperfusion injury. Particulars: background statement; cited from earlier work.
In another experiment the test system is lung EC. The experiment can be described thus: LPS (TLR4)-dependent mitochondrial fission in lung EC. Particulars: LPS 2 EU/ml, 4 h; FIG. 1C. In kind it is cell-based. How it is done: TLR^4 ligation with LPS (2 EU/ml, 4 h) also increases mitochondrial fission and this is blocked by the putative Drp1 inhibitor, mdivi-1 (1C). Data are mean±SEM. N=3-10. P<0.05 vs. control.
Using immunofluorescence microscopy, increased mitochondrial localization of Drp1 was observed (FIG. 1B).

The next experiment relates to Drp1 GTPase. Particulars: background statement; cited from earlier work.
The subject of another experiment is complex I. Particulars: background statement; cited from earlier work.

Take `O=C(CC1CC2CCC1C2)N1CCN(Cc2csc(NCC3CCC3)n2)CC1` (centres unmarked) [Compound 2444-32]: the “increase in fission induced by eNAMPT” value in [1] is given as “prevent the increase in fission induced by eNAMPT”. In addition, the “VILI-mediated increase in TNFα in BALF” value in [2] (FIG. 6A) is on record as “attenuated”. The “VILI-mediated increase in IL-6 in BALF” value in experiment [2] (FIG. 6B) is on record as “attenuated”. Also, the “VILI-mediated increase in IL-18 in BALF” value in experiment [2] (FIG. 6C) is listed as “attenuated”. For the same compound, in experiment [2] (FIG. 6D), the “VILI-mediated increase in GROα in BALF” value is “attenuated”. The “VILI-mediated increase in MIP-1α in BALF” value in [2] (FIG. 6E) was “attenuated”. In addition, the “VILI-mediated increase in MIP-1β in BALF” value in experiment [2] (FIG. 6F) is given as “attenuated”. Also, the “VILI-mediated increase in MCP-1 in BALF” value in [2] (FIG. 6G) was “attenuated”. For the same compound, the “VILI-mediated increase in MCP-3 in BALF” value in experiment [2] (FIG. 6H) is recorded as “attenuated”. The “VILI-mediated increase in IL-12p70 in BALF” value in experiment [2] (FIG. 6I) is recorded as “attenuated”. In addition, the “total cell counts in bronchoalveolar lavage (BAL) fluid” value in [2] (high tidal ventilation 40 mL/kg, 4 h, FIG. 5B) is “decreases”. The “protein in bronchoalveolar lavage (BAL) fluid” value in [2] (high tidal ventilation 40 mL/kg, 4 h, FIG. 5C) is given as “decreases”. Further, in [2] (mice exposed to VILI), the lung injury entry is recorded as “decreases lung injury”. For the same compound, in the experiment with mouse primary microglia, the “paraquat-induced increase in IL-1β mRNA” value is “significantly attenuated” and the “paraquat-induced increase in RelA mRNA” value is on record as “significantly attenuated”. The “α-synuclein aggregation (puncta)” value in the experiment with LUHMES cells is recorded as “significantly reduced”.

Turning to `O=C(Cc1ccc(Cl)c(Cl)c1)N1CCN(Cc2csc(NCC3(c4ccccc4)CC3)n2)CC1` [Compound 2444-19], the “increase in fission induced by eNAMPT” value in experiment [1] is “not”.

Turning to `O=C(N/N=C/c1ccc(O)c(O)c1)c1cc2ccccc2cc1O` [Dynasore], the “inhibition of dynamin 1” value at dynamin 1 is listed as “blocks”. In addition, at dynamin 2, the “inhibition of dynamin 2” value was “blocks”.

For `O=C1c2ccncc2C(=O)c2c1[nH]c1ccccc21` [Drpitor1a], the cell proliferation entry with cell proliferation is given as “reduce cell proliferation”. In addition, the “lung cancer tumor growth” value with lung cancer tumor was “suppress lung cancer tumor growth”. For the same compound, the “protection against cardiac ischemia-reperfusion injury” value in [3] was “protect against cardiac ischemia-reperfusion injury”.

Take `CCCCNc1nc(CN2CCN(C(=O)CC3CC4CCC3C4)CC2)cs1` (centres unmarked) [Compound 2444-20]: the “increase in fission induced by eNAMPT” value in [1] is given as “prevent the increase in fission induced by eNAMPT”.

For `COc1cc(-n2c(=S)[nH]c3ccccc3c2=O)c(Cl)cc1Cl` [mdivi-1], in the experiment on lung EC, the TLR4-dependent mitochondrial fission result is reported as “decreases TLR4-dependent mitochondrial fission”. Besides, the “inhibition of Drp1 GTPase activity” value with Drp1 GTPase was “weak and non-specific inhibitor”. Further, in the experiment with complex I, the “inhibition of complex I” value is given as “reversible inhibitor”.
